We go through 11 compounds from US20120157471A1, “BENZIMIDAZOLE DERIVATIVES” (PFIZER INC., priority 2009, published 2012).

A word on the IC50: it is the midpoint of a concentration-inhibition curve. The low end stands for inhibition by little substance, the high end for a need for much substance.

The test system of one assay is Gli-Luc/MEF cells (Smo). In words: Gli-Luc/MEF assay (Shh-stimulated luciferase reporter under the Gli response element). As to conditions: Mus musculus, MEF, 48 h. Format: cell-based, mouse. The procedure:
The Gli-Luc/MEF cells obtained from Gli-Luc transgenic mice (Pfizer CoE, Genetically Modified Mice) contain a luciferase reporter gene under the control of the Gli response element. Luciferase activity stimulated with Sonic hedgehog ligand was inhibited by Smo inhibitors, and IC50 was subsequently calculated.
Plates were incubated at 37° C. and 5% CO2 overnight. On day two, cells were dosed with test compounds at a final concentration ranging from […] to 50 μM at a 3-time series dilution. Immediately after dosing cells with compounds, recombinant mouse sonic hedgehog (Shh, R&D Systems 464-SH) was added to a final concentration of 2 μg/mL. The cells were incubated with compounds and Shh for 48 hours at 37° C. and 5% CO2. Luciferase assays were conducted on Day 4 using the Bright-Glo Luciferase assay system (Promega E2620) according to Promega's protocol. Briefly, Bright-Glo luciferase reagent was made up and 25 uL were added to each well of the 384-well plate containing media. Plates were kept at room temperature for 5 minutes, and then read on an Envision Luminescence plate reader (Perkin-Elmer). IC50 of the inhibition was calculated by using GraphPad Prism.
Background: Reporter assays use an easily measured gene product as a stand-in for the process of interest.

Assay [1] concerns the target T1, human Smo (amino acids 181-787) (Homo sapiens, UniProt Q99835).
T1 construct: expressed in transfected cells; membrane preparation
Briefly: Smo radioligand competition binding assay (displacement of 3H-PF-03451358 from HEK293 membranes). As to conditions: for inhibition at 0.05 µM: 0.05 μM test compound, displacement of 3H-PF-03451358, read-out: SMO % inh. @ 0.05 μM; for IC50: radioligand competition binding. As to the method: Membranes were prepared from a stable cell line created in HEK293FlpIn-TetR cells (Invitrogen) using FIp recombinase-mediated insertion of the pSecTag-FRT/V5-His vector containing a cDNA encoding amino acids 181-787 of human Smo fused to the murine lgk leader sequence to produce a cell surface expressed Smo 181-781 protein. Hygromycin-resistant clones were obtained and stained for LacZ expression (no expression indicates a correct knock-in of my fusion cDNA). LacZ-negative cells were analyzed for binding tritiated Smo antagonist PF-03451358. For membrane preparation, the HEK293 cells expressing Smo 181-781 were grown to 90% confluence in nine to fifteen 245 mm×245 mm×22 mm dishes, washed with Dulbecco's PBS (15 ml per dish) and harvested via scraping in 10 ml of DPBS. The cells were collected and centrifuged at 1500 rpm (400×g) for 10 min at 4° C. The cell pellets were re-suspended in 40 ml of cold DPBS and washed by centrifugation at 2300 rpm (950×g max) for 10 minutes at 4° C. The supernatant was aspirated and the cell pellet was snap frozen in a methanol/dry ice bath and stored at −70° C. For membrane preparation, 15 ml of Membrane Preparation Buffer (50 mM Tris-HCl pH 7.5, 250 mM sucrose with Roche complete protease cocktail tablets) is added to the tube containing the cell pellet, then cells are rapidly thawed, and homogenized using an Ultra-Turrax T8 (IKA Labortechnik) set on “6” for 15 seconds for 5-6 times in icy water bath. This homogenate was diluted up to 50 ml using Membrane Preparation Buffer and centrifuged at 35,000 rpm in a Beckman Ti45 rotor (140,000×g) for 35 minutes at 4° C. followed by aspiration of the supernatant and re-suspension of the pellet in 5 ml of Assay Buffer (50 mM Tris-HCl pH 7.5, 100 mM NaCl, 25 mM MgCl2, 1 mM EDTA, and 0.1% protease free bovine serum albumin). The re-suspended pellet is then homogenized in a glass tissue grinder. The re-suspended membranes are aliquoted (0.5 ml aliquots), snap frozen and stored at −70° C. Total protein in the membrane preparation is determined using the Pierce BCA protein assay (Pierce Chemical).
For the binding competition assay, 100 μl of Assay Buffer is added to all the wells of a 96 well GF/B filter plate (Millipore MultiScreen-HTS-FB cat# MSFBN6B50) for 10 minutes to pre-wet the filter prior to evacuation of the buffer (8 inches Hg for 8 seconds). To the pre-wet wells is added: 20 μl of Assay Buffer, 10 μl diluted test agent, 20 μl of ^3H-PF-3451358 (15 nM stock solution), and 50 μl of membrane preparation (40 μg total protein per well). The plates are sealed and mixed at room temperature for 5 min, incubated at room temperature for 2 hours, then washed 5 times with 100 μl/each of wash buffer and vacuum dried for 8 seconds at 8 inch Hg. The plate is then dried for one hour in a 60° C. oven prior to the addition of 45 μl of Microscint 20 (Packard, #6013621) to each well and incubation at RT for 30 minutes to 1 hour. The plate is counted in a TopCount scintillation counter (Perkin Elmer).
Data analysis uses Excel for % Inhibition and Graphpad Prism for IC50 calculation. Total binding (TB, in the absence of inhibitors)=average of ^3H PF-03451358 3 nM+SMO membrane (40 μg/wells (approx 5000-7000 CPM). Non-specific binding (NSB)=average of ^3H PF-03451358 (3 nM)+cold PF-03451358 (30 μM)+SMO membrane (approx 600-1200 CPM). Specific binding (SB)=(total binding−non-specific binding). % Inhibition=[1−(compound Specific binding/control Specific binding)]×100%. IC50 is calculated by fitting the data to the four parameter sigmoidal dose-response curve (variable slope) Y=Bottom+(Top-Bottom)/(1+10̂((LogEC50−X)*HillSlope)). X is the logarithm of the inhibitor concentration. Y is the response; Y starts at Bottom and goes to Top with a sigmoid shape.

T1 sequence (Q99835 181-787): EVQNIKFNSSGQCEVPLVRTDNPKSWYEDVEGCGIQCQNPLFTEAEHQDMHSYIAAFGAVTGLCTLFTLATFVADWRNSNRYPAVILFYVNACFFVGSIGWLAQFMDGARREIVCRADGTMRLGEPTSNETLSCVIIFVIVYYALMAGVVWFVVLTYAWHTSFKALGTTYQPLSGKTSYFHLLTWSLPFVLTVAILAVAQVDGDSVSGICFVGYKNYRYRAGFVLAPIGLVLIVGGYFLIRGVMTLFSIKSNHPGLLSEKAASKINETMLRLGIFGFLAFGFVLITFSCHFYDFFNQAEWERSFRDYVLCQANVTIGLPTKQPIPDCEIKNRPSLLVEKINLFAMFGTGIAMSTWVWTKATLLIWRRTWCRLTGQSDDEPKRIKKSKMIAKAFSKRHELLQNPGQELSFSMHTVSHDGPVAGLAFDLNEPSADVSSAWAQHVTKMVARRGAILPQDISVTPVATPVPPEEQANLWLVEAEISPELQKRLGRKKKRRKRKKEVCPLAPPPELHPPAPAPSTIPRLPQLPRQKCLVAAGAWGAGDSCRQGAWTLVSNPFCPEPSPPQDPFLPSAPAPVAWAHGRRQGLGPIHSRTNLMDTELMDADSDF

For `Cn1c(-c2ccnc(N3CCC(NS(C)(=O)=O)CC3)n2)nc2ccccc21` [Example C-10, N-{1-[4-(1-methyl-1H-benzimidazol-2-yl)pyrimidin-2-yl]piperidin-4-yl}methanesulfonamide], the IC50 in the assay with Gli-Luc/MEF cells (Smo) was 57 nM; in assay [1], 44 nM. Further, in assay [1], the inhibition at 0.05 µM was found to be 97%.
In the assay on Gli-Luc/MEF cells (Smo), `Cn1c(-c2cc(N3CCC4(CC3)CC(O)CCO4)ncc2Cl)nc2ccccc21` (stereo not drawn) [Example A-204, 9-[5-chloro-4-(1-methyl-1H-benzimidazol-2-yl)pyridin-2-yl]-1-oxa-9-azaspiro[5.5]undecan-4-ol] displayed an IC50 of 12.6 nM. Further, in assay [1], the inhibition at 0.05 µM turned out to be 96% and the IC50 is 19 nM.
Consider `Cn1c(-c2cc(N3CCN(c4ccc(C#N)cn4)CC3)ncc2Cl)nc2ccccc21` [Example A-189, 6-{4-[5-chloro-4-(1-methyl-1H-benzimidazol-2-yl)pyridin-2-yl]piperazin-1-yl}nicotinonitrile], for which the IC50 was determined as 0.79 nM in the assay with Gli-Luc/MEF cells (Smo) and 11 nM in assay [1]. The inhibition at 0.05 µM in assay [1] is 99%.
In the assay with Gli-Luc/MEF cells (Smo), `Cn1c(-c2cc(N3CCC(CO)(CCO)C3)ncc2Cl)nc2ccccc21` (stereo not drawn) [Example A-85, 2-{1-[5-chloro-4-(1-methyl-1H-benzimidazol-2-yl)pyridin-2-yl]-3-(hydroxymethyl)pyrrolidin-3-yl}ethanol] displayed an IC50 of 7 nM. Besides, in assay [1], the inhibition at 0.05 µM turned out to be 90% and the IC50 was found to be 17 nM.
In the same order, the values of `Cn1c(-c2cc(N3CCC(NS(C)(=O)=O)CC3)ncc2Cl)nc2cccnc21` [Example A-36, N-{1-[5-chloro-4-(3-methyl-3H-imidazo[4,5-b]pyridin-2-yl)pyridin-2-yl]piperidin-4-yl}methanesulfonamide] are 12 nM, 93% and 23 nM.
`Cn1c(-c2cc(N3CCN(C4CCS(=O)(=O)C4)CC3)ncc2Cl)nc2ccccc21` (stereo not drawn) [Example A-86, 2-{5-chloro-2-[4-(1,1-dioxidotetrahydro-3-thienyl)piperazin-1-yl]pyridin-4-yl}-1-methyl-1H-benzimidazole] displayed a half-maximal inhibitory concentration (IC50) in the assay on Gli-Luc/MEF cells (Smo) of 43 nM. In assay [1], the inhibition at 0.05 µM stood at 90% and the IC50 was found to be 61 nM.
As to `CNC(=O)N1CCN(c2ccc(Cl)c(-c3nc4ccccc4n3C)n2)CC1` [Example B-3, 4-[5-chloro-6-(1-methyl-1H-benzimidazol-2-yl)pyridin-2-yl]-N-methylpiperazine-1-carboxamide], the figures for the IC50 (with Gli-Luc/MEF cells (Smo); in assay [1]) were 20 nM and 49 nM, respectively. For the same compound, the inhibition at 0.05 µM in assay [1] was 88%.
For `Cn1nc2n(c1=O)CCN(c1cc(-c3nc4ccccc4n3C)c(Cl)cn1)CC2` [Example A-78, 7-[5-chloro-4-(1-methyl-1H-benzimidazol-2-yl)pyridin-2-yl]-2-methyl-2,5,6,7,8,9-hexahydro-3H-[1,2,4]triazolo[4,3-d][1,4]diazepin-3-one], the half-inhibitory concentration (IC50) with Gli-Luc/MEF cells (Smo) stood at 11 nM. For the same compound, in assay [1], the inhibition at 0.05 µM came out at 92% and the IC50 stood at 14 nM.
In the same order, the values of `Cn1c(-c2cc(N3CCC(OCC(=O)NC4CC4)CC3)ncc2Cl)nc2ccccc21` [Example A-59, 2-({1-[5-chloro-4-(1-methyl-1H-benzimidazol-2-yl)pyridin-2-yl]piperidin-4-yl}oxy)-N-cyclopropylacetamide] are 3 nM, 96% and 12 nM.
On the same counts, the results for `CC(=O)N[C@H]1[C@@H]2CN(c3cc(-c4nc5ccccc5n4C)c(Cl)cn3)C[C@@H]21` [Example A-9, N-{(1R,5S,6S)-3-[5-chloro-4-(1-methyl-1H-benzimidazol-2-yl)pyridin-2-yl]-3-azabicyclo[3.1.0]hex-6-yl}acetamide] are 23 nM, 74% and 189 nM.
Regarding `Cn1c(-c2cc(N3CC(NS(C)(=O)=O)C3)ncc2Cl)nc2ccccc21` [Example A-41, N-{1-[5-chloro-4-(1-methyl-1H-benzimidazol-2-yl)pyridin-2-yl]azetidin-3-yl}methanesulfonamide], the IC50 in the assay with Gli-Luc/MEF cells (Smo) is 4 nM; in assay [1], 7 nM. In addition, in assay [1], the inhibition at 0.05 µM worked out at 98%.
